Experimental data as given in patent US20170065730A1, “COMPOSITION FOR IMAGING ATHEROSCLEROSIS AND METHOD FOR DIAGNOSING ATHEROSCLEROSIS BY USING SAME” (priority 2014, published 2017).

Tested on: atherosclerotic site of the aorta
Test: Fluorescence imaging of aorta sections after ear vein injection of RITC-MSA or RITC
Format: in vivo
Conditions: cholesterol diet rabbit, 10 minutes after ear vein injection
Protocol: Ten 12-week-old normal rabbits (New Zealand White rabbits) were used for experiment. They were randomly divided into two groups of 5 rabbits. One group was given a normal diet and the other group was given a diet containing 1% cholesterol. The animals were kept under a standardized condition (21° C., 41-62% humidity) with regular light/dark (10/14 hr) cycles and were given free access to water and feed. 3 months later, after intravenously injecting 1 mCi of ^68Ga-MSA under anesthesia, positron emission tomography was performed on the whole body for 10 minutes from 10 minutes after the injection (FIGS. 5 and 6). On the next day, the rabbits were anesthetized and RITC-MSA (42 μg/0.1 mL) or RITC mixed in 0.9% physiological saline was injected into the ear vein of the rabbits. 10 minutes later, the rabbits were euthanized and the aorta was cut and kept at −20° C. The aorta sections were fixed at room temperature for 30 minutes in a 4% (v/v) buffered formalin solution, washed with cold PBS (pH 7.4), embedded in optimum cutting temperature compound (OCT, Sakura, Tokyo) and kept at −80° C. after a day for tissue penetration. Tissue slices cut to a thickness of […] were mounted on slides together with poly-D-lysine and then kept at room temperature until use after drying at 45° C. in the shade. […]

Substance: rhodamine B isothiocyanate [RITC]
- fluorescence / binding at the atherosclerotic site of the aorta: cannot be observed
